From patent US20170348322A1, “BK Channels as Non-Genomic Estrogen Targets for Overactive Bladder” (priority 2016, published 2017)

How the values were obtained:
human DSM cells = assay: Resting membrane potential (RMP) of DSM cells, current-clamp; format: cell-based
Description: (§1) Patch-clamp electrophysiological experiments: Patch-clamp experiments were performed as previously described. (Hristov K L, Chen M, Kellett W F, Rovner E S, and Petkov G V. Large-conductance voltage- and Ca2+-activated K+ channels regulate human detrusor smooth muscle function. Am J Physiol Cell Physiol 301: C903-912, 2011; Hristov K L, Parajuli S P, Soder R P, Cheng Q, Rovner E S, and Petkov G V. Suppression of human detrusor smooth muscle excitability and contractility via pharmacological activation of large conductance Ca2+-activated K+ channels. Am J Physiol Cell Physiol 302: C1632-1641, 2012; Malysz J, Rovner E S, and Petkov G V. Single-channel biophysical and pharmacological characterizations of native human large-conductance calcium-activated potassium channels in freshly isolated detrusor smooth muscle cells. Pflugers Arch 465: 965-975, 2013; Parajuli S P, Hristov K L, Cheng Q P, Malysz J, Rovner E S, and Petkov G V. Functional link between muscarinic receptors and large-conductance Ca2+-activated K+ channels in freshly isolated human detrusor smooth muscle cells. Pflugers Arch 467: 665-675, 2015.)
The current disclosure applied the amphotericin B-perforated whole cell patch-clamp technique to record transient BK currents (TBKCs), depolarization-induced steady-state whole cell BK currents, and the resting membrane potential (RMP) of human freshly-isolated DSM cells. TBKCs in DSM cells were recorded at the holding potential of −20 mV. Depolarization-induced steady-state whole cell BK currents were elicited by holding the DSM cells at −70 mV and then brief, 200 ms depolarization steps were applied from −40 mV to +80 mV in increments of 20 mV. Single BK channel activity was recorded from inside-out excised membrane patches using symmetrical K^+ (140 mM) solutions, at a holding potential of −60 mV (Vh=−60 mV). The electrochemical driving force for K^+ in these experimental conditions was +60 mV (VDV=60 mV). Paxilline (1 μM), a selective BK channel inhibitor was used to dissect their functional role in mediating 17β-estradiol induced effects on DSM function. All patch-clamp experiments were conducted at room temperature (22-23° C.).
(§2) Solutions and drugs: Ca^2+-free dissection solution contained (in mM): 80 monosodium glutamate, 55 NaCl, 6 KCl, 10 glucose, 10 HEPES,2 MgCl2, and the pH was adjusted to 7.3 with NaOH. […] Extracellular and patch-pipette solutions for single BK channel recordings contained (in mM): 140 KCl, 1.08 MgCl2, 5 EGTA, 10 HEPES, and 3.16 CaCl2, adjusted to pH 7.2 with NaOH (Ca^2+ free concentration was calculated ˜300 nM with WEBMAXC Standard, http://www.stanford.edu/˜cpatton/webmaxcS.htm, Chris Patton). […]

BK channels [1] = biological target: T1, BK channels (Homo sapiens, UniProt Q12791+Q16558); assay: Single BK channel recordings, inside-out excised membrane patches of DSM cells; format: biochemical; conditions: 17β-estradiol 100 nM, n=9, N=7
T1 construct: Human single DSM cells were enzymatically isolated as previously described; endogenous in cells; host or cells: freshly-isolated human detrusor smooth muscle (DSM) cells from open bladder surgery specimens
Description: (§3) Patch-clamp electrophysiological experiments: Patch-clamp experiments were performed as previously described. […]
(§4) The current disclosure applied the amphotericin B-perforated whole cell patch-clamp technique to record transient BK currents (TBKCs), depolarization-induced steady-state whole cell BK currents, and the resting membrane potential (RMP) of human freshly-isolated DSM cells. TBKCs in DSM cells were recorded at the holding potential of −20 mV. […] Single BK channel activity was recorded from inside-out excised membrane patches using symmetrical K^+ (140 mM) solutions, at a holding potential of −60 mV (Vh=−60 mV). […]
as §2

[2] = system: human DSM isolated strips; assay: Isometric tension recordings: nerve-evoked (EFS-induced) contractions of DSM isolated strips; format: cell-based; conditions: 17β-estradiol 100 nM; in particular at lower stimulation frequencies (0.5-20.0 Hz); n=7, N=3; P<0.05
Description: (§5) Isometric DSM tension recordings: Isometric DSM tension recordings of human DSM isolated strips (˜7-8 mm long and ˜4-5 mm wide) were conducted as previously described (Hristov K L, Chen M, Kellett W F, Rovner E S, and Petkov G V. Large-conductance voltage- and Ca2+-activated K+ channels regulate human detrusor smooth muscle function. Am J Physiol Cell Physiol 301: C903-912, 2011; Hristov K L, Parajuli S P, Soder R P, Cheng Q, Rovner E S, and Petkov G V. Suppression of human detrusor smooth muscle excitability and contractility via pharmacological activation of large conductance Ca2+-activated K+ channels. Am J Physiol Cell Physiol 302: C1632-1641, 2012).
as §2

BK channels [3] = biological target: T1, BK channels; assay: Depolarization-induced steady-state whole cell outward BK currents, amphotericin B-perforated patch-clamp, freshly-isolated DSM cells; format: cell-based
Source text: as §1, with “DSM single cell isolation: Human single DSM cells” for “Patch-clamp electrophysiological experiments: Patch-clamp experiments”, “enzymatically isolated” for “performed”, “2012;” for “2012; Malysz J, Rovner E S, and Petkov G V. Single-channel biophysical and pharmacological characterizations of native human large-conductance calcium-activated potassium channels in freshly isolated detrusor smooth muscle cells. Pflugers Arch 465: 965-975, 2013;”
as §3, §4

rat DSM isolated strips = conditions: 17β-estradiol 30 μM; cited from earlier work
pig DSM isolated strips = conditions: 17β-estradiol 30 μM; cited from earlier work
BK channels [4] = biological target: T1, BK channels; assay: Transient BK currents (TBKCs), perforated whole cell patch-clamp, freshly-isolated DSM cells; format: cell-based; conditions: 17β-estradiol 100 nM, holding potential −20 mV
Source text: as §1, with “DSM single cell isolation: Human single DSM cells” for “Patch-clamp electrophysiological experiments: Patch-clamp experiments”, “enzymatically isolated” for “performed”, “2012;” for “2012; Malysz J, Rovner E S, and Petkov G V. Single-channel biophysical and pharmacological characterizations of native human large-conductance calcium-activated potassium channels in freshly isolated detrusor smooth muscle cells. Pflugers Arch 465: 965-975, 2013;”, “2015.) […]” for “2015.)”
as §4

[5] = system: human DSM isolated strips; assay: Isometric tension recordings: spontaneous phasic contractions of DSM isolated strips; format: cell-based
Description: Human DSM specimen collection: The study forming the basis for the current disclosure was conducted according to protocol Pro00045232, reviewed and approved by the Medical University of South Carolina Institutional Review Board. […] The DSM tissue samples were obtained during open bladder surgeries performed for a variety of indications such as bladder cancer, including radical cystectomy for urothelial carcinoma, and adenocarcinoma. In such cases, the collected DSM tissue was remote from the site of tumor. DSM strips were dissected from the bladder specimens, and after removing the urothelial and lamina propria layers, the strips were used for single DSM cell isolation and isometric DSM tension recordings.
as §5
Solutions and drugs: Ca^2+-free dissection solution contained (in mM): 80 monosodium glutamate, 55 NaCl, 6 KCl, 10 glucose, 10 HEPES,2 MgCl2, and the pH was adjusted to 7.3 with NaOH. For the functional studies on human DSM contractility, the physiological saline solution had the following composition (in mM): 119 NaCl, 4.7 KCl, 24 NaHCO3, 1.2 KH2PO4, 2.5 CaCl2, 1.2 MgSO4, and 11 D-glucose, aerated with 95% O2-5% CO2 (pH 7.4). Extracellular (bath) solution used for the perforated whole cell patch-clamp experiments contained (in mM): 134 NaCl, 6 KCl, 1 MgCl2, 2 CaCl2, 10 glucose, 10 HEPES, and pH was adjusted to 7.4 with NaOH. The patch-pipette solution for the perforated patch-clamp experiments contained (in mM): 110 potassium aspartate, 30 KCl, 10 NaCl, 1 MgCl2, 10 HEPES, 0.05 EGTA, and pH was adjusted to 7.2 with NaOH. Amphotericin-B stock solution was prepared daily in dimethyl sulfoxide (DMSO) and was added to the pipette solution (200 μg/ml) before the experiment and was replaced every 1-2 h. Extracellular and patch-pipette solutions for single BK channel recordings contained (in mM): 140 KCl, 1.08 MgCl2, 5 EGTA, 10 HEPES, and 3.16 CaCl2, adjusted to pH 7.2 with NaOH (Ca^2+ free concentration was calculated ˜300 nM with WEBMAXC Standard, http://www.stanford.edu/˜cpatton/webmaxcS.htm, Chris Patton). […]
Data analysis and statistics: Clampfit 10.3 (Molecular Device, Union City, Calif.) and Minianalysis software (Synaptosoft, Inc., NJ) were used to analyze the data. Mean values of the last 50 ms pulse of 200 ms depolarization step of at least 5 average files in the absence (control) and in the presence of 17β-estradiol were analyzed to evaluate the effects of 17β-estradiol on steady-state whole cell BK currents. […] Five minutes of at least an 8-10 min stable patch-clamp recording prior to application of 17β-estradiol were analyzed for control data, and the last 5 min of continuous recordings of 10-15 min after application of 17β-estradiol were analyzed to evaluate the effects of 17β-estradiol on RMP or TBKCs. […]

[6] = 17β-estradiol 100 nM-1 μM, strips pre-incubated with paxilline (1 μM), n=5, N=5, P>0.05
[7] = 17β-estradiol 1 μM, n=8, N=5, P<0.05

T1 sequence (Q12791 whole entry): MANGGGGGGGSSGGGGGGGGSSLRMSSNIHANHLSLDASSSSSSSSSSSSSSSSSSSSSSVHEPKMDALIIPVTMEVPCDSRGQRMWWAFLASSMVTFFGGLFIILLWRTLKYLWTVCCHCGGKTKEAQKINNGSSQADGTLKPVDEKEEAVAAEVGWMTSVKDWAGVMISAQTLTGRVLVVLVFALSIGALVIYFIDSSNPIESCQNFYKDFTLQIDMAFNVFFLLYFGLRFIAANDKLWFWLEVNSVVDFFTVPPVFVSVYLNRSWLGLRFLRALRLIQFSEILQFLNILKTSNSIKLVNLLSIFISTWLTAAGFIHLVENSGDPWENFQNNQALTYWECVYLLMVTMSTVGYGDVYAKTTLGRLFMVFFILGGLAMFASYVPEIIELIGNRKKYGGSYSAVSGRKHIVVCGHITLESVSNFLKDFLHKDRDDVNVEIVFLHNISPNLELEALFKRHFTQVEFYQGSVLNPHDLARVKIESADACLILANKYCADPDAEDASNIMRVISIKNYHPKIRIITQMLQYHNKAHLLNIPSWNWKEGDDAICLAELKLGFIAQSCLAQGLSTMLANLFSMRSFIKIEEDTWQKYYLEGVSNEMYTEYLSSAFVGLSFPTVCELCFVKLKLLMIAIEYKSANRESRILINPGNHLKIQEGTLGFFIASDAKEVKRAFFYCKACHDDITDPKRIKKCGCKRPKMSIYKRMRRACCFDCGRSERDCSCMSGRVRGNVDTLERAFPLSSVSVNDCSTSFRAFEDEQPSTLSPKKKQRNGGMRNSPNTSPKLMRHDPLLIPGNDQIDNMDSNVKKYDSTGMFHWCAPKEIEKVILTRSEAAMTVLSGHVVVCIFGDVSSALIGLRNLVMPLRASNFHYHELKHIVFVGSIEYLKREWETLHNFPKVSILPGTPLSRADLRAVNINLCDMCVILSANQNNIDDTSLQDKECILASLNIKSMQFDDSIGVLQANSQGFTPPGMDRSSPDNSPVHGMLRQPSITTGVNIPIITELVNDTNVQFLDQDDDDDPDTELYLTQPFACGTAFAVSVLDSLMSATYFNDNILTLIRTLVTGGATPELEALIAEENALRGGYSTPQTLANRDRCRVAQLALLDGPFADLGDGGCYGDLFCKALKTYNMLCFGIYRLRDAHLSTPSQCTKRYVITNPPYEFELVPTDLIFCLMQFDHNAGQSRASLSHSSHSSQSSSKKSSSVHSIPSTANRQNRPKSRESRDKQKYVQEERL
T1 sequence (Q16558 whole entry): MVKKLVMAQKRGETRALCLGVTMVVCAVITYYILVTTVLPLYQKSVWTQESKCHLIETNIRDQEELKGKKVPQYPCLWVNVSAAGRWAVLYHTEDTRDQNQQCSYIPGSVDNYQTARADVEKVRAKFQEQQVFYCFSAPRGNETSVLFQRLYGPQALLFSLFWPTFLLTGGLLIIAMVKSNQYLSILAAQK

SMILES | DSM cell RMP (human DSM cells; paxilline only (1 μM), n=8, N=5) [mV] | single BK channel open probability (NPo) (BK channels [1]; Vh=−60 mV, control 0.086±0.030, P<0.05) | single BK channel current amplitude (BK channels [1]; control 11.7±0.7 pA, P>0.05) [pA] | effect on EFS-induced contractions [2] | effect on whole cell K+ current density (BK channels [3]; 17β-estradiol 100 nM, n=12, N=8, P<0.05) | whole cell outward K+ currents (BK channels [3]; at +80 mV, 17β-estradiol 100 nM, control 33.9±6.5 pA/pF, n=12, N=8, P<0.05) [pA/pF] | BK current amplitude (BK channels [3]; at +80 mV, both paxilline (1 μM) and 17β-estradiol (100 nM), vs 6.1±1.7 paxilline alone, P>0.05) [pA/pF] | effect on pharmacologically-induced and nerve-evoked contractions (rat DSM isolated strips) | effect on KCl- and muscarinic receptor-induced contractions (pig DSM isolated strips) | effect on average TBKC amplitude (BK channels [4]) | increase of the frequency of TBKCs (BK channels [4]; control taken as 100%, n=8, N=5, P<0.05) [%] | effect on muscle force integral [5, 6] | effect on spontaneous phasic contraction amplitude [5, 6] | decrease of muscle force integral [5, 7] [%] | decrease of spontaneous phasic contraction amplitude [5, 7] [%] | effect on phasic contraction frequency ([5]; 17β-estradiol 1 μM, n=8, N=5, P>0.05) | DSM cell RMP (human DSM cells; 17β-estradiol 100 nM, control −25.7±3.2 mV, n=11, N=9, P<0.05) [mV] | hyperpolarization of the DSM cell RMP (human DSM cells; 17β-estradiol 100 nM, n=11, N=9, P<0.05) [mV] | DSM cell RMP (human DSM cells; 17β-estradiol in the presence of paxilline (1 μM), n=8, N=5, P>0.05) [mV]
CC(C)(O)[C@H]1O[C@H]2CC[C@@]3(C)[C@@](O)(CC[C@H]4Cc5c([nH]c6ccccc56)[C@@]43C)C2=CC1=O [paxilline] | −22.1±4.7 | – | – | – | – | – | – | – | – | – | – | – | – | – | – | – | – | – | –
C[C@]12CC[C@@H]3c4ccc(O)cc4CC[C@H]3[C@@H]1CC[C@@H]2O [17β-estradiol] | – | 0.137±0.030 | 11.9±0.5 | significantly inhibited | significantly increased | 44.5±7.8 | 6.8±1.8 | decrease | inhibitory effects | without significantly altering | 74.6±37.8 | did not affect | did not affect | 44.4±13.2 | 53.3±8.9 | without significantly changing | −28.9±3.3 | ~3 | −21.9±4.4
